Assay results published in patent US8999691B2 (priority 2010, dated 2015).
Changes are numbered by the printed parent chain. In names and notes the source's numbering stands.

Columns and labels:
[1] = target: Botryotinia fuckeliana glucose dehydrogenase (Bfu-GDH, SEQ ID NO:2) variant N176S (Botrytis cinerea, UniProt A0A384K3P1, N192S); conditions: glucose 1-40 mM; pH 6.5; partially purified enzyme
Procedure: (§1) Site-specific mutagenesis was carried out by the QuikChange™ method. In the QuikChange™ method, the pET30c-Bfu-GDH created in Example 1 was used as the template, and amplified by PCR with mutagenesis primers. Next, DpnI was added to the reaction mixture and incubated at 37° C. for 60 minutes to digest the template DNA, and E. coli DH5a was transformed. After culturing overnight in an LB agar culture (50 μg/mL kanamycin), the plasmid was extracted from randomly selected clones, and the sequence was analyzed to confirm that the target mutation was introduced. The resulting PCR products were NdeI and HindIII digested (37° C., 2 hours), ligated with the same restriction enzyme-digested pET30c, and E. coli BL21(DE3) was transformed. After culturing overnight In an LB agar medium (50 μg/mL kanamycin), the plasmid was extracted from randomly selected clones, and the sequence was analyzed to confirm the mutation.
(§2) Transformants BL21(DE3) for expressing each of the modified enzymes were pre-cultured.

[2] = target: Botryotinia fuckeliana glucose dehydrogenase (Bfu-GDH, SEQ ID NO:2) variant G53A/S514G (Botrytis cinerea, UniProt A0A384K3P1, G69A/S530G); conditions: glucose 1-40 mM; pH 6.5; partially purified enzyme
Procedure: as §1, §2

[3] = target: Botryotinia fuckeliana glucose dehydrogenase (Bfu-GDH, SEQ ID NO:2) variant N176E (Botrytis cinerea, UniProt A0A384K3P1, N192E); conditions: glucose 1-40 mM; pH 6.5; partially purified enzyme
Procedure: as §1, §2

[4] = target: Botryotinia fuckeliana glucose dehydrogenase (Bfu-GDH, SEQ ID NO:2) variant S552C (Botrytis cinerea, UniProt A0A384K3P1, S568C); conditions: glucose 1-40 mM; pH 6.5; partially purified enzyme
Procedure: as §1, §2

[5] = target: Botryotinia fuckeliana glucose dehydrogenase (Bfu-GDH, SEQ ID NO:2) variant N176R (Botrytis cinerea, UniProt A0A384K3P1, N192R); conditions: glucose 1-40 mM; pH 6.5; partially purified enzyme
Procedure: as §1, §2

[6] = target: Botryotinia fuckeliana glucose dehydrogenase (Bfu-GDH, SEQ ID NO:2) variant G53A (Botrytis cinerea, UniProt A0A384K3P1, G69A); conditions: glucose 1-40 mM; pH 6.5; partially purified enzyme
Procedure: as §1, §2

[7] = target: Botryotinia fuckeliana glucose dehydrogenase (Bfu-GDH, SEQ ID NO:2) variant S514G (Botrytis cinerea, UniProt A0A384K3P1, S530G); conditions: glucose 1-40 mM; pH 6.5; partially purified enzyme
Procedure: as §1, §2

[8] = target: Botryotinia fuckeliana glucose dehydrogenase (Bfu-GDH, SEQ ID NO:2) variant N176K (Botrytis cinerea, UniProt A0A384K3P1, N192K); conditions: glucose 1-40 mM; pH 6.5; partially purified enzyme
Procedure: as §1, §2

[9] = target: Botryotinia fuckeliana glucose dehydrogenase (Bfu-GDH, FAD-GDH), wild type, SEQ ID NO:2 (Botrytis cinerea, UniProt A0A384K3P1); experiment: Michaelis-Menten saturation kinetics with glucose (DCIP/PMS dehydrogenase assay); type: biochemical
Source text: as §2

[10] = substrate: OC[C@H]1OC(O)[C@H](O)[C@@H](O)[C@@H]1O; experiment: purified protein, by the assay type; type: biochemical, Aspergillus oryzae T1; conditions: other: glucose, DCIP/PMS, pH 6.5, enzyme expressed 20° C./28 h
Source text: According to a prediction from the SignalP 3.0 Server, the region from the N-terminus to the Lys residue at the position 23 was predicted to be a signal peptide. A nucleotide sequence which encodes the amino acid sequence having the initiation methionine and the downstream sequence from the Asn residue at the position 24 was designed and totally synthesized. The amino acid sequence of the protein (referred to below as “Ao-GDH”) encoded by the gene thus obtained is shown in SEQ ID NO:4. E. coli BL21(DE3) (F—, ompT, hsdSB(rB- mB-), gal(λcI 857, ind1, Sam7, nin5, LacUV5-T7gene1), dcm(DE3): from Novagen) was used as the host for recombinant production. The gene expression vector used was pET30c (kan, LacI; from Novagen), and the chaperone co-expression vector used was pGro7 (GroEL, GroES; from TaKaRa).
(§3) (10-fold dilution at a final concentration).

[11] = substrate: OC[C@H]1OC(O)[C@H](O)[C@@H](O)[C@@H]1O; experiment: purified protein, by the assay type; type: biochemical, Aspergillus oryzae T1; conditions: other: glucose, DCIP/PMS, pH 6.5, enzyme expressed 20° C./28 h; remark: listed apart in the source
Source text: as §3

Question: What does the source list for `OC[C@H]1OC(O)[C@H](O)[C@@H](O)[C@@H]1O` (some centres unmarked) [glucose]?
Answer: Vmax (apparent maximum activity) [1]: 11.5 U/mg protein; Vmax (apparent maximum activity) [2]: 8.9 U/mg protein; Vmax (apparent maximum activity) [3]: 10.4 U/mg protein; Vmax (apparent maximum activity) [4]: 7.8 U/mg protein; Vmax (apparent maximum activity) [5]: 24.9 U/mg protein; Vmax (apparent maximum activity) [6]: 8.1 U/mg protein; Vmax (apparent maximum activity) [7]: 36.6 U/mg protein; Vmax (apparent maximum activity) [8]: 25.1 U/mg protein; Vmax ([9]; Table 3 (unit not given), glucose): 8.7; Vmax (apparent maximum activity) ([9]; glucose 1-40 mM, pH 6.5, partially purified enzyme): 8.7 U/mg protein

B1: Aspergillus oryzae T1 glucose dehydrogenase (Ao-GDH, FAD-GDH), wild type, SEQ ID NO:4 (Aspergillus oryzae) (protein)
chain: MNTTTYDYIVVGGGTSGLVVANRLSENPDVSVLLLEAGASVFNNPDVTNANGYGLAFGSAIDWQYQSINQSYAGGKQQVLRAGKALGGTSTINGMAYTRAEDVQIDVWQKLGNEGWTWKDLLPYYLKSENLTAPTSSQVAAGAAYNPAVNGKEGPLKVGWSGSLASGNLSVALNRTFQAAGVPWVEDVNGGKMRGFNIYPSTLDVDLNVREDAARAYYFPYDDRKNLHLLENTTANRLFWKNGSAEEAIADGVEITSADGKVTRVHAKKEVIISAGALRSPLILELSGVGNPTILKKNNITPRVDLPTVGENLQDQFNNGMAGEGYGVLAGASTVTYPSISDVFGNETDSIVASLRSQLSDYAAATVKVSNGHMKQEDLERLYQLQFDLIVKDKVPIAEILFHPGGGNAVSSEFWGLLPFARGNIHISSNDPTAPAAINPNYFMFEWDGKSQAGIAKYIRKILRSAPLNKLIAKETKPGLSEIPATAADEKWVEWLKANYRSNFHPVGTAAMMPRSIGGVVDNRLRVYGTSNVRVVDASVLPFQVCGHLVSTLYAVAERASDLIKEDAKSA
Question: How did the Km [10] turn out when B1 was run?
Answer: 44.7 mM

Question: What about the Vmax [10] of the same molecule?
Answer: 120 µmol/min/mg

B2: Aspergillus oryzae T1 glucose dehydrogenase (Ao-GDH, SEQ ID NO:4) variant G190C (Aspergillus oryzae; G212C) (protein)
chain: B1 chain with G190C
Question: For B2, which Km [11] is on record?
Answer: 51.3 mM

Question: And the Vmax [11]?
Answer: 119 µmol/min/mg
